PMC12069643, “Structural insights into the selective recognition of RF-amide peptides by neuropeptide FF receptor 2” (EMBO Reports, 2025)

Assays:
Experiment in all cases: GloSensor forskolin-stimulated cAMP assay, NPFFR2 mutants
Type in all cases: cell-based
NPFFR2 mutants [1] = target: T1, NPFFR2 mutants (Homo sapiens, UniProt Q9Y5X5, D207A); conditions: NPFFR2 D1052.64A, HEK293T, three independent experiments
T1 construct: expressed in transfected cells; host or cells: HEK293T (pcDNA3.1 NPFFR2 mutants)
Text: (§1) Figure 2 Interaction of hNPSF with NPFFR2. (A) Residues participating in the interactions between hNPSF and NPFFR2 in the transmembrane (TM) binding pocket are shown as sticks. Dashed lines indicate polar interactions and hydrogen bonds between residues. Zoomed-in views highlighting interactions of the C-terminal segment (residues −1 to −4, PQRF), middle segment (residues −5 to −8, FLFQ), and the N-terminal segment (residues −9 to −11, SQA) of hNPSF are enclosed in red, blue, and yellow boxes, respectively. (B) NPFFR2 residues interacting with hNPSF were mutated to alanine, and the impact of each mutation on the EC50 value (ΔpEC50) was investigated using a forskolin-stimulated cAMP assay, after confirming surface expression of each mutant by an ELISA-based surface expression assay (Appendix Fig. S5). Three independent experiments (with technical triplicates) were conducted for each mutant. The bar graphs represent the mean of ΔpEC50 values from each experiment, with error bars indicating SEM. Statistical analyses were performed using ordinary one-way ANOVA followed by Dunnett’s test, comparing to the wild-type response. ns (not significant, P > 0.05); *P < 0.05; **P < 0.01; ***P < 0.001. Source data are available online for this figure.
(§2) HEK293T cells were seeded at a density of 6 × 10^5 cells per well in a six-well cell culture plate (SPL) and co-transfected with expression plasmids encoding GloSensor™ and each NPFFR construct, using 1 µg to 4 µg of DNA per well according to the Lipofectamine™ 2000 Transfection Reagent (Invitrogen) protocol. After 48 h of incubation under standard conditions (37 °C, 5% CO2), the cells were detached using Accutase solution (Sigma-Aldrich) and washed with PBS. The cells were then pelleted by centrifugation, resuspended in CO2-independent medium (Gibco) supplemented with Firefly D-Luciferin (0.5 mg/ml, NanoLight), and distributed into a 96-well white plate (SPL). After a 2-hour incubation, serially diluted ligands and 0.5 μM forskolin were added to each well to detect ligand-induced signaling. Luminescence signals were measured using a Mithras LB940 instrument (Berthold) with a measurement time of 1 s per well.
(§3) Data from the GloSensor^TM cAMP signaling assays were analyzed using GraphPad Prism with a three-parameter logistic model to fit concentration-response curves for both wild-type (WT) and mutant receptors. Mutant expression levels and DNA amounts were adjusted to match WT conditions. ΔpEC50 values were calculated by subtracting the log EC50 of the WT receptor from that of each mutant. Results are presented as mean ± SEM from three independent biological replicates, each performed in duplicate or more. Error bars represent the SEM. Statistical significance was assessed using one-way ANOVA, followed by Dunnett’s tests comparisons to the WT receptor. Significance levels were reported as follows: ns (not significant, P > 0.05); *P < 0.05; **P < 0.01; ***P < 0.001.
(§4) Appendix Figure S5. GloSensorTM cAMP assays of mutants and wild-type NPFFR2.
(§5) The dose-response of cAMP assay data for each mutant (red) presented in Fig. 2B are compared against the wild-type NPFFR2 (blue). Each experiment was conducted after adjusting the mutant's expression level to that of the wild-type NPFFR2 (Appendix Fig. S3), and pcDNA3.1 was used to match the total amount of DNA transfected. Data points represent mean values from three independent experiments (each with technical triplicate), with error bars indicating SEM. Raw data were normalized to the vehicle -treated (0%) and 0.5 μM forskolin-treated (100%) responses.
(§6) (% of forskolin stimulation) […]

NPFFR2 mutants [2] = target: T2, NPFFR2 mutants (Homo sapiens, UniProt Q9Y5X5, N413A); conditions: NPFFR2 N3117.31A, HEK293T, three independent experiments
T2 construct: expressed in transfected cells; host or cells: HEK293T (pcDNA3.1 NPFFR2 mutants)
Text: as §1, §2, §3, §4, §5, §6

NPFFR2 mutants [3] = target: T3, NPFFR2 mutants (Homo sapiens, UniProt Q9Y5X5, V305A); conditions: NPFFR2 V203ECL2A, HEK293T, three independent experiments
T3 construct: expressed in transfected cells; host or cells: HEK293T (pcDNA3.1 NPFFR2 mutants)
Text: as §1, §2, §3, §4, §5, §6

NPFFR2 mutants [4] = target: T4, NPFFR2 mutants (Homo sapiens, UniProt Q9Y5X5, Y417A); conditions: NPFFR2 Y3157.35A, HEK293T, three independent experiments
T4 construct: expressed in transfected cells; host or cells: HEK293T (pcDNA3.1 NPFFR2 mutants)
Text: as §1, §2, §3, §4, §5, §6

NPFFR2 mutants [5] = target: T5, NPFFR2 mutants (Homo sapiens, UniProt Q9Y5X5, Q227A); conditions: NPFFR2 Q1253.32A, HEK293T, three independent experiments
T5 construct: expressed in transfected cells; host or cells: HEK293T (pcDNA3.1 NPFFR2 mutants)
Text: as §1, §2, §3, §4, §5, §6

NPFFR2 mutants [6] = target: T6, NPFFR2 mutants (Homo sapiens, UniProt Q9Y5X5, E310A); conditions: NPFFR2 E20845.52A, HEK293T, three independent experiments
T6 construct: expressed in transfected cells; host or cells: HEK293T (pcDNA3.1 NPFFR2 mutants)
Text: as §1, §2, §3, §4, §5, §6

NPFFR2 mutants [7] = target: T7, NPFFR2 mutants (Homo sapiens, UniProt Q9Y5X5, I414S); conditions: NPFFR2 I3127.32S, HEK293T, three independent experiments
T7 construct: expressed in transfected cells; host or cells: HEK293T (pcDNA3.1 NPFFR2 mutants)
Text: as §1, §2, §3, §4, §5, §6

NPFFR2 mutants [8] = target: T8, NPFFR2 mutants (Homo sapiens, UniProt Q9Y5X5, W393A); conditions: NPFFR2 W2916.52A, HEK293T, three independent experiments
T8 construct: expressed in transfected cells; host or cells: HEK293T (pcDNA3.1 NPFFR2 mutants)
Text: as §1, §2, §3, §4, §5, §6

NPFFR2 mutants [9] = target: T9, NPFFR2 mutants (Homo sapiens, UniProt Q9Y5X5, L141A); conditions: NPFFR2 L39NtA, HEK293T, three independent experiments
T9 construct: expressed in transfected cells; host or cells: HEK293T (pcDNA3.1 NPFFR2 mutants)
Text: as §1, §2, §3, §4, §5, §6

NPFFR2 mutants [10] = target: T10, NPFFR2 mutants (Homo sapiens, UniProt Q9Y5X5, I414A); conditions: NPFFR2 I3127.32A, HEK293T, three independent experiments
T10 construct: expressed in transfected cells; host or cells: HEK293T (pcDNA3.1 NPFFR2 mutants)
Text: as §1, §2, §3, §4, §5, §6

NPFFR2 mutants [11] = target: T11, NPFFR2 mutants (Homo sapiens, UniProt Q9Y5X5, E289A); conditions: NPFFR2 E187ECL2A, HEK293T, three independent experiments
T11 construct: expressed in transfected cells; host or cells: HEK293T (pcDNA3.1 NPFFR2 mutants)
Text: as §1, §2, §3, §4, §5, §6

NPFFR2 mutants [12] = target: T12, NPFFR2 mutants (Homo sapiens, UniProt Q9Y5X5, F425A); conditions: NPFFR2 F3237.43A, HEK293T, three independent experiments
T12 construct: expressed in transfected cells; host or cells: HEK293T (pcDNA3.1 NPFFR2 mutants)
Text: as §1, §2, §3, §4, §5, §6

T11 sequence (Q9Y5X5 103-522 E289A): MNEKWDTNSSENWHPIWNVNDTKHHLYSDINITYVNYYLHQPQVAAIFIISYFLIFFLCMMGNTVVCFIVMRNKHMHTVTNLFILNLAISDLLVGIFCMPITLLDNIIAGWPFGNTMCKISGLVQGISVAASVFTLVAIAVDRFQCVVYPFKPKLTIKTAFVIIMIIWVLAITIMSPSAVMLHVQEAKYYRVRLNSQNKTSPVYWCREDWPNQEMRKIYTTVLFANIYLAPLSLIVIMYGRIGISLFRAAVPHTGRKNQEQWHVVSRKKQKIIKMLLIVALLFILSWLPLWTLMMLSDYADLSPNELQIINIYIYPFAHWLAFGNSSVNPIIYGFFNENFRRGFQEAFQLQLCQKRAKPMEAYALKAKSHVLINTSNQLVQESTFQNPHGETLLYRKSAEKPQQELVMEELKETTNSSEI
T6 sequence (Q9Y5X5 103-522 E310A): as the sequence (Q9Y5X5 103-522 E289A) above, with A187E, E208A counted along it
T5 sequence (Q9Y5X5 103-522 Q227A): as the sequence (Q9Y5X5 103-522 E289A) above, with Q125A, A187E counted along it
T3 sequence (Q9Y5X5 103-522 V305A): as the sequence (Q9Y5X5 103-522 E289A) above, with A187E, V203A counted along it
T8 sequence (Q9Y5X5 103-522 W393A): as the sequence (Q9Y5X5 103-522 E289A) above, with A187E, W291A counted along it
T12 sequence (Q9Y5X5 103-522 F425A): as the sequence (Q9Y5X5 103-522 E289A) above, with A187E, F323A counted along it
T1 sequence (Q9Y5X5 103-522 D207A): as the sequence (Q9Y5X5 103-522 E289A) above, with D105A, A187E counted along it
T4 sequence (Q9Y5X5 103-522 Y417A): as the sequence (Q9Y5X5 103-522 E289A) above, with A187E, Y315A counted along it
T10 sequence (Q9Y5X5 103-522 I414A): as the sequence (Q9Y5X5 103-522 E289A) above, with A187E, I312A counted along it
T7 sequence (Q9Y5X5 103-522 I414S): as the sequence (Q9Y5X5 103-522 E289A) above, with A187E, I312S counted along it
T9 sequence (Q9Y5X5 103-522 L141A): as the sequence (Q9Y5X5 103-522 E289A) above, with L39A, A187E counted along it
T2 sequence (Q9Y5X5 103-522 N413A): as the sequence (Q9Y5X5 103-522 E289A) above, with A187E, N311A counted along it

## CC(C)C[C@H](NC(=O)[C@H](Cc1ccccc1)NC(=O)[C@H](C)NC(=O)[C@H](CCC(N)=O)NC(=O)[C@@H](N)CO)C(=O)N[C@@H](Cc1ccccc1)C(=O)N[C@@H](CCC(N)=O)C(=O)N1CCC[C@H]1C(=O)N[C@@H](CCC(N)=O)C(=O)N[C@@H](CCCNC(=N)N)C(=O)N[C@@H](Cc1ccccc1)C(N)=O [hNPSF]
NPFFR2 mutants [1]; HEK-293T
  Emax: 69 ± 4%
NPFFR2 mutants [1]
  EC50: 12.6 nM
NPFFR2 mutants [2]; HEK-293T
  Emax: 69 ± 8%
NPFFR2 mutants [2]
  EC50: 1260 nM
NPFFR2 mutants [3]; HEK-293T
  Emax: 78 ± 3%
NPFFR2 mutants [3]
  EC50: 200 nM
NPFFR2 mutants [4]; HEK-293T
  Emax: 77 ± 2%
NPFFR2 mutants [4]
  EC50: 126 nM
NPFFR2 mutants [5]; HEK-293T
  Emax: 59 ± 4%
NPFFR2 mutants [5]
  EC50: 1260 nM
NPFFR2 mutants [6]; HEK-293T
  Emax: 29 ± 11%
NPFFR2 mutants [6]
  EC50: 3.98 µM
NPFFR2 mutants [7]; HEK-293T
  Emax: 75 ± 3%
NPFFR2 mutants [7]
  EC50: 31.6 nM
NPFFR2 mutants [8]; HEK-293T
  Emax: 80 ± 4%
NPFFR2 mutants [8]
  EC50: 79.4 nM
NPFFR2 mutants [9]; HEK-293T
  Emax: 70 ± 3%
NPFFR2 mutants [9]
  EC50: 10 nM
NPFFR2 mutants [10]; HEK-293T
  Emax: 63 ± 3%
NPFFR2 mutants [10]
  EC50: 10 nM
NPFFR2 mutants [11]; HEK-293T
  Emax: 75 ± 3%
NPFFR2 mutants [11]
  EC50: 1 nM
NPFFR2 mutants [12]; HEK-293T
  Emax: 81 ± 3%
NPFFR2 mutants [12]
  EC50: 398 nM
